Source: patent publication US12116388B2, “Amylin receptor agonists” (Novo Nordisk A/S, priority 2022, dated 2024)
Starred links: 1 amine or outer side, 2 acyl side, 3 side chain; linkers in the order of their positions; H or OH if unused. Residues, ends and D or L forms follow the SMILES beside them. *: point of attachment. C20 diacid = O=C(O)CCCCCCCCCCCCCCCCCCC(=O)*; C18 diacid = O=C(O)CCCCCCCCCCCCCCCCC(=O)*; γGlu = O=C(O)[C@H](CCC(=O)[*:2])N[*:1]

Biological target: T1, human calcitonin receptor (hCTR) (Homo sapiens, UniProt P30988)
T1 construct: host or cells: BHK (Baby Hamster Kidney), Hollex-1 cell line
T1 sequence (P30988 25-474): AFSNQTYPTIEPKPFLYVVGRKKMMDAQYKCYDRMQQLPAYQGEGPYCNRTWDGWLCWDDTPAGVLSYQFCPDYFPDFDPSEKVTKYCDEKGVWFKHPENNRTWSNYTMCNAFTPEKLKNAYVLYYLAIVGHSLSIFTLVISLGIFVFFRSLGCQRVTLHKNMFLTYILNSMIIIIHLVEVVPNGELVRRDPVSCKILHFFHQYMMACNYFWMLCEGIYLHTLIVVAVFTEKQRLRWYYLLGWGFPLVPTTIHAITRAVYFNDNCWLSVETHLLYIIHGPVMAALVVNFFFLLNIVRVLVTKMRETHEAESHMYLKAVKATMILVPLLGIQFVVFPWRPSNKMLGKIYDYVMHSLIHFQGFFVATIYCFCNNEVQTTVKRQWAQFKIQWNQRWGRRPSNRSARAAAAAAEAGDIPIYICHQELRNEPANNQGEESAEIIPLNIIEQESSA
Assay: Human calcitonin receptor (hCTR) in vitro potency assay, CRE-luciferase reporter in BHK cells
Format: cell-based
Conditions: BHK hCTR/CRE-Luc cells, 3 hours incubation, assay buffer with 1% ovalbumin; read-out: hCalcR potency, EC50
Outline: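 Luciferase signal from a CRE reporter served as the cAMP read-out after 3 h, 37 °C exposure to compound. Cells were stably transfected BHK expressing hCTR, and the buffer was phenol-red-free DMEM with 10 mM HEPES and 1% ovalbumin. Compounds were tested as 7-point, 7-fold dilutions, often from about 10 nM.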

Row | SMILES | EC50 [pM]
1 | CC[C@H](C)[C@H](NC(=O)[C@@H]1CCCN1C(=O)CNC(=O)[C@H](Cc1ccccc1)NC(=O)[C@H](Cc1c[nH]cn1)NC(=O)[C@H](Cc1c[nH]cn1)NC(=O)[C@H](CC(C)C)NC(=O)[C@H](Cc1ccccc1)NC(=O)[C@H](CCC(=O)O)NC(=O)[C@H](C)NC(=O)[C@H](CC(C)C)NC(=O)[C@H](CCCNC(=N)N)NC(=O)[C@H](CCC(N)=O)NC(=O)[C@@H](NC(=O)[C@H](CCC(N)=O)NC(=O)[C@H](C)NC(=O)[C@@H](NC(=O)[C@H](CO)NC(=O)[C@H](CC(C)C)NC(=O)[C@H](Cc1c[nH]cn1)NC(=O)[C@H](CO)NC(=O)[C@H](C)NC(=O)CC[C@H](NC(=O)CCCCCCCCCCCCCCCCCCC(=O)O)C(=O)O)[C@@H](C)O)[C@@H](C)O)C(=O)N[C@@H](CC(C)C)C(=O)N1CCC[C@H]1C(=O)N1CCC[C@H]1C(=O)N[C@H](C(=O)N[C@@H](CC(=O)O)C(=O)N[C@H](C(=O)NCC(=O)N[C@@H](CO)C(=O)N[C@@H](CCC(=O)O)C(=O)N[C@H](C(=O)N1CCC[C@H]1C(N)=O)[C@@H](C)O)C(C)C)[C@@H](C)O [Compound 4, N^1-[(4S)-4-carboxy-4-(19-carboxynonadecanoylamino)butanoyl]-[Ala1,Ser2,His3,Leu4,Ser5,Ala7,Gln8,Glu14,His17,Pro25,Pro28,Pro29,Asp31,Glu35,Pro37],des-(19-22)-human amylin] ({C20 diacid-γGlu}-ASHLSTAQTQRLAEFLHHFGPILPPTDVGSETP-NH2) | 1.44
2 | CC[C@H](C)[C@H](NC(=O)[C@H](C)NC(=O)CNC(=O)[C@H](Cc1ccccc1)NC(=O)[C@@H]1CCCN1C(=O)[C@H](CC(=O)O)NC(=O)[C@H](CO)NC(=O)[C@H](CO)NC(=O)[C@H](Cc1c[nH]cn1)NC(=O)[C@H](Cc1c[nH]cn1)NC(=O)[C@H](CC(C)C)NC(=O)[C@H](Cc1ccccc1)NC(=O)[C@H](CCC(=O)O)NC(=O)[C@H](C)NC(=O)[C@H](CC(C)C)NC(=O)[C@H](CCCNC(=N)N)NC(=O)[C@H](CCC(N)=O)NC(=O)[C@@H](NC(=O)[C@H](CCC(N)=O)NC(=O)[C@H](C)NC(=O)[C@@H](NC(=O)[C@H](CO)NC(=O)[C@H](CC(C)C)NC(=O)[C@H](Cc1c[nH]cn1)NC(=O)[C@H](CO)NC(=O)[C@H](C)NC(=O)CC[C@H](NC(=O)CCCCCCCCCCCCCCCCC(=O)O)C(=O)O)[C@@H](C)O)[C@@H](C)O)C(=O)N1CCC[C@H]1C(=O)N[C@@H](CO)C(=O)N[C@@H](CO)C(=O)N[C@H](C(=O)N[C@@H](CC(=O)O)C(=O)N[C@H](C(=O)NCC(=O)N1CCC[C@H]1C(=O)N[C@@H](CC(=O)O)C(=O)N[C@H](C(=O)N1CCC[C@H]1C(N)=O)[C@@H](C)O)C(C)C)[C@@H](C)O [Compound 8, N^1-[(4S)-4-carboxy-4-(17-carboxyheptadecanoylamino)butanoyl]-[Ala1,Ser2,His3,Leu4,Ser5,Ala7,Gln8,Glu14,His17,Asp21,Pro22,Pro27,Asp31,Pro34,Asp35,Pro37]-human amylin] ({C18 diacid-γGlu}-ASHLSTAQTQRLAEFLHHSSDPFGAIPSSTDVGPDTP-NH2) | 1.44
3 | CC[C@H](C)[C@H](NC(=O)[C@H](C)NC(=O)CNC(=O)[C@H](Cc1ccccc1)NC(=O)[C@@H]1CCCN1C(=O)[C@H](CC(=O)O)NC(=O)[C@H](CO)NC(=O)[C@H](CO)NC(=O)[C@H](Cc1c[nH]cn1)NC(=O)[C@H](Cc1c[nH]cn1)NC(=O)[C@H](CC(C)C)NC(=O)[C@H](Cc1ccccc1)NC(=O)[C@H](CCC(=O)O)NC(=O)[C@H](C)NC(=O)[C@H](CC(C)C)NC(=O)[C@H](CCCNC(=N)N)NC(=O)[C@H](CCC(N)=O)NC(=O)[C@@H](NC(=O)[C@H](CCC(N)=O)NC(=O)[C@H](C)NC(=O)[C@@H](NC(=O)[C@H](CO)NC(=O)[C@H](CC(C)C)NC(=O)[C@H](CO)NC(=O)CNC(=O)[C@H](C)NC(=O)CC[C@H](NC(=O)CCCCCCCCCCCCCCCCC(=O)O)C(=O)O)[C@@H](C)O)[C@@H](C)O)C(=O)N1CCC[C@H]1C(=O)N[C@@H](CO)C(=O)N[C@@H](CO)C(=O)N[C@H](C(=O)N[C@@H](CC(=O)O)C(=O)N[C@H](C(=O)NCC(=O)N1CCC[C@H]1C(=O)N[C@@H](CC(=O)O)C(=O)N[C@H](C(=O)N1CCC[C@H]1C(N)=O)[C@@H](C)O)C(C)C)[C@@H](C)O [Compound 10, N^1-[(4S)-4-carboxy-4-(17-carboxyheptadecanoylamino)butanoyl]-[Ala1,Gly2,Ser3,Leu4,Ser5,Ala7,Gln8,Glu14,His17,Asp21,Pro22,Pro27,Asp31,Pro34,Asp35,Pro37]-human amylin] ({C18 diacid-γGlu}-AGSLSTAQTQRLAEFLHHSSDPFGAIPSSTDVGPDTP-NH2) | 1.49
4 | CC[C@H](C)[C@H](NC(=O)[C@@H]1CCCN1C(=O)CNC(=O)[C@H](Cc1ccccc1)NC(=O)[C@H](CC(N)=O)NC(=O)[C@H](CC(=O)O)NC(=O)[C@H](CO)NC(=O)[C@H](CO)NC(=O)[C@H](Cc1c[nH]cn1)NC(=O)[C@H](Cc1c[nH]cn1)NC(=O)[C@H](CC(C)C)NC(=O)[C@H](Cc1ccccc1)NC(=O)[C@H](CCC(=O)O)NC(=O)[C@H](C)NC(=O)[C@H](CC(C)C)NC(=O)[C@H](CCCNC(=N)N)NC(=O)[C@H](C)NC(=O)[C@@H](NC(=O)[C@H](CCC(N)=O)NC(=O)[C@H](C)NC(=O)[C@@H](NC(=O)[C@H](CO)NC(=O)[C@H](CC(C)C)NC(=O)[C@H](Cc1c[nH]cn1)NC(=O)[C@H](CO)NC(=O)[C@H](C)NC(=O)CC[C@H](NC(=O)CCCCCCCCCCCCCCCCC(=O)O)C(=O)O)[C@@H](C)O)[C@@H](C)O)C(=O)N[C@@H](CC(C)C)C(=O)N1CCC[C@H]1C(=O)N1CCC[C@H]1C(=O)N[C@H](C(=O)N[C@@H](CC(=O)O)C(=O)N[C@H](C(=O)NCC(=O)N[C@@H](CO)C(=O)N[C@@H](CC(N)=O)C(=O)N[C@H](C(=O)N1CCC[C@H]1C(N)=O)[C@@H](C)O)C(C)C)[C@@H](C)O [Compound 14, N^1-[(4S)-4-carboxy-4-(17-carboxyheptadecanoylamino)butanoyl]-[Ala1,Ser2,His3,Leu4,Ser5,Ala7,Gln8,Ala10,Glu14,His17,Asp21,Pro25,Pro28,Pro29,Asp31,Pro37]-human amylin] ({C18 diacid-γGlu}-ASHLSTAQTARLAEFLHHSSDNFGPILPPTDVGSNTP-NH2) | 1.63
5 | CC[C@H](C)[C@H](NC(=O)[C@@H]1CCCN1C(=O)CNC(=O)[C@H](Cc1ccccc1)NC(=O)[C@H](Cc1c[nH]cn1)NC(=O)[C@H](Cc1c[nH]cn1)NC(=O)[C@H](CC(C)C)NC(=O)[C@H](Cc1ccccc1)NC(=O)[C@H](CCC(=O)O)NC(=O)[C@H](C)NC(=O)[C@H](CC(C)C)NC(=O)[C@H](CCCNC(=N)N)NC(=O)[C@H](C)NC(=O)[C@@H](NC(=O)[C@H](CCC(N)=O)NC(=O)[C@H](C)NC(=O)[C@@H](NC(=O)[C@H](CO)NC(=O)[C@H](CC(C)C)NC(=O)[C@H](CCC(=O)O)NC(=O)CNC(=O)[C@H](C)NC(=O)CC[C@H](NC(=O)CCCCCCCCCCCCCCCCC(=O)O)C(=O)O)[C@@H](C)O)[C@@H](C)O)C(=O)N[C@@H](CC(C)C)C(=O)N1CCC[C@H]1C(=O)N1CCC[C@H]1C(=O)N[C@H](C(=O)N[C@@H](CC(=O)O)C(=O)N[C@H](C(=O)NCC(=O)N[C@@H](CO)C(=O)N[C@@H](CCC(=O)O)C(=O)N[C@H](C(=O)N1CCC[C@H]1C(N)=O)[C@@H](C)O)C(C)C)[C@@H](C)O [Compound 16, N^1-[(4S)-4-carboxy-4-(17-carboxyheptadecanoylamino)butanoyl]-[Ala1,Gly2,Glu3,Leu4,Ser5,Ala7,Gln8,Ala10,Glu14,His17,Pro25,Pro28,Pro29,Asp31,Glu35,Pro37],des-(19-22)-human amylin] ({C18 diacid-γGlu}-AGELSTAQTARLAEFLHHFGPILPPTDVGSETP-NH2) | 1.03
6 | CC[C@H](C)[C@H](NC(=O)[C@@H]1CCCN1C(=O)CNC(=O)[C@H](Cc1ccccc1)NC(=O)[C@H](Cc1c[nH]cn1)NC(=O)[C@H](Cc1c[nH]cn1)NC(=O)[C@H](CC(C)C)NC(=O)[C@H](Cc1ccccc1)NC(=O)[C@H](CCC(=O)O)NC(=O)[C@H](C)NC(=O)[C@H](CC(C)C)NC(=O)[C@H](CCCNC(=N)N)NC(=O)[C@H](C)NC(=O)[C@@H](NC(=O)[C@H](CCC(N)=O)NC(=O)[C@H](C)NC(=O)[C@@H](NC(=O)[C@H](CO)NC(=O)[C@H](CC(C)C)NC(=O)[C@H](Cc1c[nH]cn1)NC(=O)[C@H](CO)NC(=O)[C@H](C)NC(=O)CC[C@H](NC(=O)CC[C@H](NC(=O)CCCCCCCCCCCCCCCCC(=O)O)C(=O)O)C(=O)O)[C@@H](C)O)[C@@H](C)O)C(=O)N[C@@H](CC(C)C)C(=O)N1CCC[C@H]1C(=O)N1CCC[C@H]1C(=O)N[C@H](C(=O)N[C@@H](CC(=O)O)C(=O)N[C@H](C(=O)NCC(=O)N[C@@H](CO)C(=O)N[C@@H](CCC(=O)O)C(=O)N[C@H](C(=O)N1CCC[C@H]1C(N)=O)[C@@H](C)O)C(C)C)[C@@H](C)O [Compound 17, N^1-[(4S)-4-carboxy-4-[[(4S)-4-carboxy-4-(17-carboxyheptadecanoylamino)butanoyl]amino]butanoyl]-[Ala1,Ser2,His3,Leu4,Ser5,Ala7,Gln8,Ala10,Glu14,His17,Pro25,Pro28,Pro29,Asp31,Glu35,Pro37],des-(19-22)-human amylin] ({C18 diacid-γGlu-γGlu}-ASHLSTAQTARLAEFLHHFGPILPPTDVGSETP-NH2) | 1.15
